Data reported in patent US4067982A, “Aryl-substituted piperazinyl-alkylamino-uracils, -uracil ethers and -uracil thioethers as therapeutics” (priority 1976, dated 1978).

Experiments:
[1] = test system: blood pressure of the narcotized cat; experiment: Lowering of the blood pressure, narcotized cat; format: in vivo; settings: Felis catus, iv; for ED30: 30% lowering; for ED50: 50% lowering
[2] = test system: carotid sinus relaxation reflex of the narcotized cat; experiment: Inhibition of the carotid sinus reflex, narcotized cat; format: in vivo; settings: Felis catus, iv; for ED30: 30% inhibition; for ED50: 50% inhibition
[3] = test system: blood pressure of the narcotized rat; experiment: Lowering of the blood pressure, narcotized rat; format: in vivo; set-up: unit not given here; settings: 30% lowering
[4] = test system: blood pressure increasing effect of adrenaline; experiment: Inhibition of the pressor effect of adrenaline, despinalized rat; format: in vivo; settings: iv, 0.001 mg/kg i.v. adrenaline, read-out: 50% inhibition of the press. effect after i.v. administration of adrenaline with
[5] = test system: blood pressure increasing effect of noradrenaline; experiment: Inhibition of the pressor effect of noradrenaline, despinalized rat; format: in vivo; settings: iv, 0.001 mg/kg i.v. noradrenaline, read-out: 50% inhibition of the press. effect after i.v. administration of noradrenaline with
[6] = test system: blood pressure, circulatory system and central nervous system; settings: recognized; cited from earlier work
[7] = test system: mouse; experiment: PD50, rotating rod, mouse; format: in vivo; settings: ip; mouse, i.p.; dose at which an average of 50% of the mice fall from a rotating rod; read-out: PD50
Text: The centrally inhibiting effect of the piperazinyl uracils of the invention in the mouse are apparent from Table IV. […] The selective action of the compounds of the invention on the central blood pressure mechanism can be used advantageously in human therapy in the treatment of hypertonic diseases.
a = Dose, at which an average of 50% of the mice fall from a rotating rod.

[8] = test system: mouse; experiment: SD50, sedation symptoms, mouse; format: in vivo; settings: mouse, oral; dose at which 50% show inhibition of spontaneous motility, sedation, muscle relaxation, loss of gripping; read-out: SD50 (the source's name)
Text: b = Dose, at which at an average 50% of the mice show the following symptoms: inhibition of the spontaneous motility, sadation, muscle relaxation, loss of gripping and holding ability on a horizontal wire net.

[9] = test system: mouse; experiment: Inhibition of the motility in the tread wheel, mouse; format: in vivo; settings: ip, 3 h; mouse, 25 mg/kg i.p.; 5 mg/kg d-amphetamine-sulfate; 180 minutes; read-out: % Inhibition of the motility in the tread wheel by 25 mg/kg i.p.
[10] = test system: mouse; experiment: Prolongation of sleep induced by hexobarbital, mouse; format: in vivo; settings: ip; mouse, 15 mg/kg i.p.; 75 mg/kg hexobarbital; vs controls; read-out: % prolongation of sleep induced by hexobarbital by 15 mg/kg i.p.
Method: d = Percent prolongation of the duration of sleep of mice, which were administered 75 mg/kg hexobarbital, compared with the sleep duration of controls.

[11] = test system: mouse; experiment: Analgesic effect, thermal stimulation of the tail of the mouse; format: in vivo; settings: oral, 25% retardation, read-out: Retardation of the defense reaction upon thermal stimulation of the tail of the mouse by 25%
Text: The analgesic effect was thereby determined as the delay in the reaction upon thermal stimulation of the tail of the mouse.

[12] = test system: systolic and diastolic blood pressure; experiment: Clinical test, blood pressure in patients; format: in vivo, human
Method: (§1) Clinical tests were conducted with the 1,3-dimethyl-4-(γ-[4(o-methoxyphenyl)-piperazinyl-(1)]-propylamino)- uracil on two female and three male patients, with doses of 10, 20, 40 and 60 mg orally administered.
Attached Diagrams 1 and 2 show the changes of the blood pressure under the effect of various doses of 1,3-dimethyl-4-(γ-[4-(o-methoxyphenyl)-piperazinyl-(1)]-propylamino)-uracil. […] Diagram 2shows the changes of the diastolic blood pressure with the same doses of the uracil compound at an average starting diastolic blood pressure (RRd) of 95.3 mm Hg plotted against the dose of the uracil compound.

[13] = test system: patients; experiment: Clinical test, compatibility and sensory functions in patients; format: in vivo, human; settings: two female and three male patients; 10, 20, 40 and 60 mg oral
Method: as §1

[14] = Solubility; format: physicochemical
[15] = in vivo; settings: mouse

SMILES | ED30 [1] | ED50 [1] | ED30 [2] | ED50 [2] | lowering of the blood pressure by 30% by [3] | ED50 [4] | ED50 [5] | mechanism of phentolamine [6] | ED50 [7] | ED50 [8] | inhibition in vivo at 25 mg/kg [9] | change in vivo at 15 mg/kg [10] | ED25 [11] | dose response of blood pressure lowering (Diagrams 1 and 2) ([12]; doses 0 to 60 mg, average starting RRs 171.9 mm Hg, RRd 95.3 mm Hg) | difference in the effect of a dose of 20 mg and a dose of 40 mg ([12]; patients, 20 mg vs 40 mg) | lowering of the systolic and diastolic blood pressure ([12]; two female and three male patients, 10, 20, 40 and 60 mg oral) | compatibility [13] | effect on perception and other sensory functions [13] | solubility in aqueous acetone [14] | LD50 [15]
Cc1ccc(N(CC2=NCCN2)c2cccc(O)c2)cc1 [Phentolamine, 2-[N'-p-tolyl-N'-(m-hydroxyphenyl)-aminomethyl]-2-imidiozoline, reference compound] | 0.1 mg/kg | 0.7 mg/kg | 0.1 mg/kg | 0.5 mg/kg | 0.63 | 0.047 mg/kg | 0.18 mg/kg | specifically inhibiting the stimulating effect of adrenaline and noradrenaline, typical alpha-blocking agent | – | – | – | – | – | – | – | – | – | – | – | –
COc1ccccc1N1CCN(CCCNc2cc(=O)n(C)c(=O)n2C)CC1 [Example 4, 1,3-Dimethyl-4-(γ-[4-(o-methoxyphenyl)piperazinyl-(1)]-propylamino)-uracil] | 0.14 mg/kg | 0.65 mg/kg | 0.03 mg/kg | 0.16 mg/kg | 0.71 | 0.36 mg/kg | 1.9 mg/kg | – | 52 mg/kg | 100 mg/kg | 36% | 71% | 2.4 mg/kg | the blood pressure is progressively lowered in response to an increasing dose of the uracil compound | statistically confirmed | statistically significant lowering of the systolic and diastolic blood pressure | excellent compatibility | no adverse effect on perception and other sensory functions | readily soluble in aqueous acetone | 400 mg/kg
